Measurements taken from PubChem BioAssay (NCI).
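GI50: concentration for 50% inhibition of growth. The concentration for full growth arrest is given as TGI.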

Tests used:
Assay in all cases: NCI tumour cell line growth inhibition, 384-well format
A549 NSCLC = system: A549 NSCLC
BT-549 breast = system: BT-549 breast
CAKI-1 renal = system: CAKI-1 renal
K-562 leukemia = system: K-562 leukemia
LOX IMVI melanoma = system: LOX IMVI melanoma
M14 melanoma = system: M14 melanoma
MCF7 breast = system: MCF7 breast
MDA-MB-231 breast = system: MDA-MB-231 breast
NCI-H322M lung = system: NCI-H322M lung
OVCAR-3 ovarian = system: OVCAR-3 ovarian
OVCAR-8 ovarian = system: OVCAR-8 ovarian
SK-MEL-28 melanoma = system: SK-MEL-28 melanoma
SNB-75 CNS = system: SNB-75 CNS

Row | Compound | GI50 (A549 NSCLC) [nM] | TGI (A549 NSCLC) [nM] | GI50 (BT-549 breast) [nM] | TGI (BT-549 breast) [nM] | GI50 (CAKI-1 renal) [nM] | TGI (CAKI-1 renal) [nM] | GI50 (K-562 leukemia) [µM] | TGI (K-562 leukemia) [nM] | GI50 (LOX IMVI melanoma) [nM] | TGI (LOX IMVI melanoma) [nM] | GI50 (M14 melanoma) [nM] | TGI (M14 melanoma) [nM] | GI50 (MCF7 breast) [µM] | TGI (MCF7 breast) [nM] | GI50 (MDA-MB-231 breast) [nM] | TGI (MDA-MB-231 breast) [nM] | GI50 (NCI-H322M lung) [nM] | TGI (NCI-H322M lung) [nM] | GI50 (OVCAR-3 ovarian) [nM] | TGI (OVCAR-3 ovarian) [nM] | other results
1 | COCCNc1cc(NC(=O)N2CCCc3cc(CN4CCN(C)CC4=O)c(C=O)nc32)ncc1C#N | > 100000 | > 100000 | > 100000 | > 100000 | > 100000 | > 100000 | 22.2 | > 100000 | > 100000 | > 100000 | > 100000 | > 100000 | > 100 | > 100000 | > 100000 | > 100000 | > 100000 | > 100000 | > 69300 | > 100000 | GI50 (OVCAR-8 ovarian): > 100 µM; TGI (OVCAR-8 ovarian): > 100000 nM; GI50 (SK-MEL-28 melanoma): > 100000 nM; TGI (SK-MEL-28 melanoma): > 100000 nM; GI50 (SNB-75 CNS): > 100 µM; TGI (SNB-75 CNS): > 100000 nM
2 | Cc1[nH]c2ccccc2c1CCNCc1ccc(/C=C/C(=O)NO)cc1 | 15.6 | 42.2 | 43.4 | 123 | 13.1 | 28.6 | < 0.01 | 14.8 | 13.1 | 26.2 | 14.7 | 82.2 | < 0.011 | 25.9 | 12.1 | 30.5 | 13.9 | 53.8 | 16.7 | 43.7 | GI50 (OVCAR-8 ovarian): < 0.01 µM; TGI (OVCAR-8 ovarian): 28.6 nM; GI50 (SK-MEL-28 melanoma): 15.3 nM; TGI (SK-MEL-28 melanoma): 38 nM; GI50 (SNB-75 CNS): < 0.0124 µM; TGI (SNB-75 CNS): 45.9 nM
